{
  "source": "paper PMC10578352",
  "about": "“Identification of a Protein Arginine Methyltransferase 7 (PRMT7)/Protein Arginine Methyltransferase 9 (PRMT9) Inhibitor” (Journal of Medicinal Chemistry, 2023)",
  "format_in_all_cases": "biochemical",
  "key": {"[1]": {"molecular_target": "T1, MLL1/KMT2A (5 component complex) (Homo sapiens, UniProt Q03164)", "T1 construct": "MLL1 residues 3745–3969, C-terminus; His (N); purchased Reaction Biology Corporation", "assay": "HotSpot KMT activity assay, MLL1", "description": "(§1) ; MW = 35.4 kDa; Genbank Accession # NM_018489), or the human recombinant EZH2-containing five-member polycomb repressive complex 2 (including EZH2 residues 2–746, AEBP2 2–517, EED 2–441, RbAp48 2–425, SUZ12 2–739; all full-length; with N-terminal Flag-tag on EED and N-terminal His-tag on all others; MW = 333.8 kDa; Genbank Accession # NM_001203247, NM_001114176, NM_003797, NM_005610, NM_015355), or the human recombinant G9a (residues 913–1193, C-terminus; with an N-terminal His-tag; MW = 34.6 kDa; Genbank Accession # NM_006709.3), or the human recombinant MLL1 complex (including MLL1 residues 3745–3969, C-terminus, WDR5 22–334, C-terminus, RbBP5 1–538, C-terminus, ASH2L 2–534, C-terminus, DPY-30 1–99, C-terminus; N-terminal His-tag on all subunits; MW = 212.0 kDa; Genbank Accession # NM_005933, NM_017588, NM_005057, NM_001105214, NM_0325742), or the human recombinant SET7/9 (residues 2–366, C-terminus; with a N-terminal GST-tag and a C-terminal His-tag; MW = 68.5 kDa; Genbank Accession # NM_030648), or the human recombinant SMYD3 (residues 2–428, C-terminus; C-terminal His-tag; MW = 50.1 kDa; Genbank Accession # NM_001167740), or the human recombinant SUV39H2 (residues 46–410, C-terminus; N-terminal fusion protein with a C-terminal His-tag; MW = 98.8 kDa; GenBank Accession No. NM_001193424), or the human recombinant DOT1L (residues 1–416; N-terminal GST-tag; MW = 80.0 kDa; Genbank Accession # NM_032482) was added to a solution of the proper substrate (oligo nucleosomes for ASH1L, MLL1 complex, and DOT1L, final concentration 0.05 mg/mL; core histone for EZH2 complex and SET7/9, final concentration 0.05 mg/mL; histone H3 for SUV39H2, final concentration 5 μM; histone H3 1–21 for G9a, final concentration 2.5 μM) in freshly prepared reaction buffer (50 mM Tris-HCl (pH 8.5), 5 mM MgCl2, 50 mM NaCl, 1 mM DTT, 1 mM PMSF, 1% DMSO) and gently mixed. […] After incubation for 60 min at 30 °C, the reaction mixture was delivered to filter paper for detection (as assessed by scintillation). […] Values obtained for each compound are mean ± SD determined for two separate experiments."}, "[2]": {"molecular_target": "T2, SMYD3/KMT3E (Homo sapiens, UniProt Q9H7B4)", "T2 construct": "the human recombinant SMYD3 (residues 2–428, C-terminus); C-terminal His-tag; His (C); purchased Reaction Biology Corporation", "T2 sequence (Q9H7B4 2-428)": "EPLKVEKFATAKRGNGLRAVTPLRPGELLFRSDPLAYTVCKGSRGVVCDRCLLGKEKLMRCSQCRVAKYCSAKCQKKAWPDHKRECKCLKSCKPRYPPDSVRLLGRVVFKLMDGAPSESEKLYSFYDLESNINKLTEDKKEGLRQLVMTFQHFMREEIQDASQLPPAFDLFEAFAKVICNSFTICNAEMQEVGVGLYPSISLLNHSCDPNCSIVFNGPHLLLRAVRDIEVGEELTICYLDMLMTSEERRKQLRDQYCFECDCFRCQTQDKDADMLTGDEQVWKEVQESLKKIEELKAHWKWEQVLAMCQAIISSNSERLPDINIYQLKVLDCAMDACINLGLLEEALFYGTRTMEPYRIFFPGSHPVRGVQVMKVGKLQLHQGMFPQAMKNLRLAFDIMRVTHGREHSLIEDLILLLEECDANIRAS", "assay": "HotSpot KMT activity assay, SMYD3", "description": "as §1"}, "[3]": {"molecular_target": "T3, SET7/9/KMT7 (Homo sapiens, UniProt Q8WTS6)", "T3 construct": "the human recombinant SET7/9 (residues 2–366, C-terminus); GST (N); His (C); purchased Reaction Biology Corporation", "T3 sequence (Q8WTS6 2-366)": "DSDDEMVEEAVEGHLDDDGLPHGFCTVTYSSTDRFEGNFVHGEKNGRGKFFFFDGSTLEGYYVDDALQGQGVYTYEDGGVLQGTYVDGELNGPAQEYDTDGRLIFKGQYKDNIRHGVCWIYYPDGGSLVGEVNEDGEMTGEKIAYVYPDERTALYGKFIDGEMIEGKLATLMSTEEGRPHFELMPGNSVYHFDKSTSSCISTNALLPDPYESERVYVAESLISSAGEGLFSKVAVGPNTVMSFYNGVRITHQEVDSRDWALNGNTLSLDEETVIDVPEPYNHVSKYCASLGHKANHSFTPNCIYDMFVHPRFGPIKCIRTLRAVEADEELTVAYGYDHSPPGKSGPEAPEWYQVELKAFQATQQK", "assay": "HotSpot KMT activity assay, SET7/9", "settings": "10-dose IC50 mode; read-out: ref. cmpd. IC50, SET7/9", "description": "as §1"}, "[4]": {"molecular_target": "T4, SUV39H2/KMT1B (Homo sapiens, UniProt Q9H5I1)", "T4 construct": "the human recombinant SUV39H2 (residues 46–410, C-terminus); His (C); purchased Reaction Biology Corporation", "T4 sequence (Q9H5I1 46-410)": "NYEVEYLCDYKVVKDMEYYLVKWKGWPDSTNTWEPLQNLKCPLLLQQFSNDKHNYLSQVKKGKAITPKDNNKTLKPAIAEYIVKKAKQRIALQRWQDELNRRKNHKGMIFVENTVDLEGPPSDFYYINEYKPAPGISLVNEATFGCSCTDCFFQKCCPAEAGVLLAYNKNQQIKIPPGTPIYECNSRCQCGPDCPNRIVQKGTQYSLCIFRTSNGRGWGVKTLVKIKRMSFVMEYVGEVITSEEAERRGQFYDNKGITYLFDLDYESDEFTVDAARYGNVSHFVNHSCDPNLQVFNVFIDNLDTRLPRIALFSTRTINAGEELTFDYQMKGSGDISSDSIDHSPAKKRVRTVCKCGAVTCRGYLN", "assay": "HotSpot KMT activity assay, SUV39H2", "settings": "10-dose IC50 mode; read-out: ref. cmpd. IC50, SUV39H2", "description": "as §1"}},
  "data": [
    {"smiles": "Nc1ncnc2c1ncn2[C@@H]1O[C@H](CSCC[C@H](N)C(=O)O)[C@@H](O)[C@H]1O", "note": "[SAH, S-5′-adenosyl-L-homocysteine, reference compound]", "values": [
      {"measurement": "IC50", "setting": "[1]", "value": 300, "unit": "nM"},
      {"measurement": "IC50", "setting": "[2]", "value": 15.9, "unit": "µM"},
      {"measurement": "IC50", "setting": "[3]", "value": 70.4, "unit": "µM"},
      {"measurement": "IC50", "setting": "[4]", "value": 37.3, "unit": "µM"}
    ]}
  ]
}
